Assay results from patent US11780826B2 (Amgen Inc., priority 2017, dated 2023).

tested on: Bovine cardiac myofibrils; experiment: In vitro model of dose-dependent myofibril ATPase modulation (AC1.4, pyruvate kinase/lactate dehydrogenase-coupled ATPase assay at pCa25); assay type: biochemical; details: concentration at which ATPase activity was 1.4-fold higher than the bottom of the dose curve, mean of a minimum of two independent tests
Procedure, shortened: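 Bovine cardiac myofibrils, detergent-treated; 0.25-1.0 mg/ml. Buffer: K-PIPES 12 mM, MgCl2 2 mM, DTT 1 mM, BSA 0.1 mg/ml, pH 6.80, 22° C; Ca2+ set by EGTA/CaCl2. ATP 1 mM, NADH/PEP-coupled, A340. 4-parameter fit; n≥2.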

`N#CC1CN(S(=O)(=O)N2CCC[C@H](C(=O)N3CCC[C@@H]3C(=O)NC3COc4ccc(C(F)(F)F)cc43)C2)C1` (stereo partly drawn) [Example 657, (2R)-1-((S)-1-((3-cyanoazetidin-1-yl)sulfonyl)piperidine-3-carbonyl)-N-(5-(trifluoromethyl)-2,3-dihydrobenzofuran-3-yl)pyrrolidine-2-carboxamide] and `N#CC1CN(S(=O)(=O)N2CCC[C@H](C(=O)N3CCC[C@@H]3C(=O)NCc3cc(C(F)(F)F)ccc3F)C2)C1` [Example 674, 1-(((3S)-1-((3-cyano-1-azetidinyl)sulfonyl)-3-piperidinyl)carbonyl)-N-(2-fluoro-5-(trifluoromethyl)benzyl)-D-prolinamide] are within 1.5-fold of each other in AC1.4: 4.572 µM for the first, 4.9025 µM for the second.

`Cc1ccnc(C(=O)N2[C@@H](C(=O)N[C@@H](c3cc(F)c(C(F)(F)F)cc3F)C3CC3)C[C@H]3C[C@H]32)c1` [Example 658, (1R,3R,5R)-N-((R)-cyclopropyl(2,5-difluoro-4-(trifluoromethyl)phenyl)methyl)-2-((4-methyl-2-pyridinyl)carbonyl)-2-azabicyclo[3.1.0]hexane-3-carboxamide] and `CCc1ccnc(C(=O)N2[C@@H](C(=O)N[C@@H](c3cc(F)c(C(F)(F)F)cc3F)C3CC3)C[C@H]3C[C@H]32)c1` [Example 661, (1R,3R,5R)-N-((R)-cyclopropyl(2,5-difluoro-4-(trifluoromethyl)phenyl)methyl)-2-((4-ethyl-2-pyridinyl)carbonyl)-2-azabicyclo[3.1.0]hexane-3-carboxamide] are within 1.5-fold of each other in AC1.4: 4.159 µM for the first, 4.1595 µM for the second.

`N#CC1CN(S(=O)(=O)N2CCC[C@H](C(=O)N3CCC[C@@H]3C(=O)NCc3c(F)cccc3C(F)(F)F)C2)C1` [Example 659, 1-(((3S)-1-((3-cyano-1-azetidinyl)sulfonyl)-3-piperidinyl)carbonyl)-N-(2-fluoro-6-(trifluoromethyl)benzyl)-D-prolinamide] and `Cc1ccc(Cl)c(CNC(=O)[C@H]2CCCN2C(=O)[C@H]2CCCN(S(=O)(=O)N3CC(C#N)C3)C2)c1` [Example 660, N-(2-chloro-5-methylbenzyl)-1-(((3S)-1-((3-cyano-1-azetidinyl)sulfonyl)-3-piperidinyl)carbonyl)-D-prolinamide] are within 1.5-fold of each other in AC1.4: 4.605 µM for the first, 4.606 µM for the second.

`CS(=O)(=O)c1cncc(C(=O)N2CCC[C@@H]2C(=O)N[C@@H](c2ccc(C(F)(F)F)cc2F)C2CC2)c1` [Example 662, N-((R)-cyclopropyl(2-fluoro-4-(trifluoromethyl)phenyl)methyl)-1-((5-(methylsulfonyl)-3-pyridinyl)carbonyl)-D-prolinamide] and `CS(=O)(=O)c1cc(C(=O)N2CCC[C@@H]2C(=O)N[C@@H](c2ccc(C(F)(F)F)cc2F)C2CC2)ccn1` [Example 675, N-((R)-cyclopropyl(2-fluoro-4-(trifluoromethyl)phenyl)methyl)-1-((2-(methylsulfonyl)-4-pyridinyl)carbonyl)-D-prolinamide] are within 1.5-fold of each other in AC1.4: 4.4365 µM for the first, 4.9395 µM for the second.

`CC1(O)CN(S(=O)(=O)N2CCC[C@H](C(=O)N3CCC[C@@H]3C(=O)NCc3ccc(Cl)c(F)c3)C2)C1` [Example 663, N-(4-chloro-3-fluorobenzyl)-1-(((3S)-1-((3-hydroxy-3-methyl-1-azetidinyl)sulfonyl)-3-piperidinyl)carbonyl)-D-prolinamide] and `CC1(O)CN(S(=O)(=O)N2CCC[C@H](C(=O)N3CCC[C@@H]3C(=O)NCc3ccc(C(F)(F)F)cc3F)C2)C1` [Example 669, N-(2-fluoro-4-(trifluoromethyl)benzyl)-1-(((3S)-1-((3-hydroxy-3-methyl-1-azetidinyl)sulfonyl)-3-piperidinyl)carbonyl)-D-prolinamide] are within 1.5-fold of each other in AC1.4: 4.6285 µM for the first, 4.727 µM for the second.

`O=C(NCc1ccc(C(F)(F)F)cc1)[C@H]1CCCN1C(=O)[C@H]1CCCN(S(=O)(=O)C2COC2)C1` [Example 664, 1-(((3S)-1-(3-oxetanylsulfonyl)-3-piperidinyl)carbonyl)-N-(4-(trifluoromethyl)benzyl)-D-prolinamide] and `O=C(NCc1ccc(C(F)(F)F)cc1)[C@H]1CCCN1C(=O)[C@H]1CCCN(S(=O)(=O)N2CC(n3cncn3)C2)C1` [Example 679, 1-(((3S)-1-((3-(1H-1,2,4-triazol-1-yl)-1-azetidinyl)sulfonyl)-3-piperidinyl)carbonyl)-N-(4-(trifluoromethyl)benzyl)-D-prolinamide] are within 1.5-fold of each other in AC1.4: 4.669 µM for the first, 5.023 µM for the second.

`CS(=O)(=O)c1cc(C(=O)N2[C@@H](C(=O)N[C@@H](c3ccc(C(F)(F)F)c(F)c3)C3CC3)C[C@H]3C[C@H]32)ccn1` [Example 665, (1R,3R,5R)-N-((R)-cyclopropyl(3-fluoro-4-(trifluoromethyl)phenyl)methyl)-2-((2-(methylsulfonyl)-4-pyridinyl)carbonyl)-2-azabicyclo[3.1.0]hexane-3-carboxamide] and `O=C(N[C@@H](c1ccc(C(F)(F)F)cc1F)C1CC1)[C@H]1C[C@H]2C[C@H]2N1C(=O)c1cncc(C(F)(F)F)c1` [Example 680, (1R,3R,5R)-N-((R)-cyclopropyl(2-fluoro-4-(trifluoromethyl)phenyl)methyl)-2-((5-(trifluoromethyl)-3-pyridinyl)carbonyl)-2-azabicyclo[3.1.0]hexane-3-carboxamide] are within 1.5-fold of each other in AC1.4: 4.554 µM for the first, 5.0333 µM for the second.

`Cc1ccc(S(C)(=O)=O)cc1C(=O)N1CCC[C@@H]1C(=O)N[C@@H](c1ccc(C(F)(F)F)cc1F)C1CC1` [Example 666, N-((R)-cyclopropyl(2-fluoro-4-(trifluoromethyl)phenyl)methyl)-1-(2-methyl-5-(methylsulfonyl)benzoyl)-D-prolinamide] and `CS(=O)(=O)c1cccc(C(=O)N2CCC[C@@H]2C(=O)N[C@@H](c2ccc(C(F)(F)F)cc2F)C2(F)COC2)c1` [Example 673, N-((S)-(3-fluoro-3-oxetanyl)(2-fluoro-4-(trifluoromethyl)phenyl)methyl)-1-(3-(methylsulfonyl)benzoyl)-D-prolinamide] are within 1.5-fold of each other in AC1.4: 4.7065 µM for the first, 4.897 µM for the second.

`O=C(N[C@@H](c1cc(F)c(Cl)cc1F)C1CC1)[C@H]1C[C@H]2C[C@H]2N1C(=O)c1cccc(C(F)(F)F)n1` [Example 667, (1R,3R,5R)-N-((R)-(4-chloro-2,5-difluorophenyl)(cyclopropyl)methyl)-2-((6-(trifluoromethyl)-2-pyridinyl)carbonyl)-2-azabicyclo[3.1.0]hexane-3-carboxamide] and `CS(=O)(=O)c1cccc(C(=O)N2[C@@H](C(=O)N[C@@H](c3ccc(C(F)(F)F)cc3F)C3(F)COC3)C[C@H]3C[C@H]32)c1` [Example 676, (1R,3R,5R)-N-((S)-(3-fluoro-3-oxetanyl)(2-fluoro-4-(trifluoromethyl)phenyl)methyl)-2-(3-(methylsulfonyl)benzoyl)-2-azabicyclo[3.1.0]hexane-3-carboxamide] are within 1.5-fold of each other in AC1.4: 4.708 µM for the first, 4.59 µM for the second.

`CCC(NC(=O)[C@H]1CCCN1C(=O)[C@H]1CCCN(S(=O)(=O)N2CC(C)(O)C2)C1)c1ccc(C(F)(F)F)cc1` (stereo partly drawn) [Example 668, (2R)-1-((S)-1-((3-hydroxy-3-methylazetidin-1-yl)sulfonyl)piperidine-3-carbonyl)-N-(1-(4-(trifluoromethyl)phenyl)propyl)pyrrolidine-2-carboxamide] and `CC1(O)CN(S(=O)(=O)N2CCC[C@H](C(=O)N3C[C@@H](F)C[C@@H]3C(=O)NCc3ccc(C(F)(F)F)cc3)C2)C1` [Example 683, (4S)-4-fluoro-1-(((3S)-1-((3-hydroxy-3-methyl-1-azetidinyl)sulfonyl)-3-piperidinyl)carbonyl)-N-(4-(trifluoromethyl)benzyl)-D-prolinamide] are within 1.5-fold of each other in AC1.4: 4.71 µM for the first, 5.096 µM for the second.

`C[C@@]1(C(=O)N[C@@H](c2cc(F)c(C(F)(F)F)cc2F)C2CC2)CCN1C(=O)c1cccc(S(C)(=O)=O)c1` [Example 670, (2S)-N-((R)-cyclopropyl(2,5-difluoro-4-(trifluoromethyl)phenyl)methyl)-2-methyl-1-(3-(methylsulfonyl)benzoyl)-2-azetidinecarboxamide] and `CS(=O)(=O)c1cncc(C(=O)N2C[C@H](C(F)F)C[C@@H]2C(=O)N[C@@H](c2ccc(C(F)(F)F)cc2F)C2CC2)c1` [Example 682, (4R)-N-((R)-cyclopropyl(2-fluoro-4-(trifluoromethyl)phenyl)methyl)-4-(difluoromethyl)-1-((5-(methylsulfonyl)-3-pyridinyl)carbonyl)-D-prolinamide] are within 1.5-fold of each other in AC1.4: 4.735 µM for the first, 4.606 µM for the second.

`N#CC1CN(S(=O)(=O)c2cccc(C(=O)N3Cc4ccccc4CC3C(=O)NCc3ccc(C(F)(F)F)cc3)c2)C1` (stereo not drawn) [Example 671, 2-(3-((3-cyanoazetidin-1-yl)sulfonyl)benzoyl)-N-(4-(trifluoromethyl)benzyl)-1,2,3,4-tetrahydroisoquinoline-3-carboxamide] and `CN(C)S(=O)(=O)c1cccc(C(=O)N2CCCCC2C(=O)NCc2ccc(C(F)(F)F)cc2)c1` (stereo not drawn) [Example 677, 1-(3-(N,N-dimethylsulfamoyl)benzoyl)-N-(4-(trifluoromethyl)benzyl)piperidine-2-carboxamide] are within 1.5-fold of each other in AC1.4: 4.776 µM for the first, 4.987 µM for the second.

`COc1ccc(CNC(=O)[C@H]2CCCN2C(=O)[C@H]2CCCN(S(=O)(=O)N3CC(C#N)C3)C2)cc1C` [Example 672, 1-(((3S)-1-((3-cyano-1-azetidinyl)sulfonyl)-3-piperidinyl)carbonyl)-N-(4-methoxy-3-methylbenzyl)-D-prolinamide] and `COc1cc(F)cc(CNC(=O)[C@H]2CCCN2C(=O)[C@H]2CCCN(S(=O)(=O)N3CC(C#N)C3)C2)c1` [Example 681, 1-(((3S)-1-((3-cyano-1-azetidinyl)sulfonyl)-3-piperidinyl)carbonyl)-N-(3-fluoro-5-methoxybenzyl)-D-prolinamide] are within 1.5-fold of each other in AC1.4: 4.8355 µM for the first, 5.0425 µM for the second.

`CN(C)S(=O)(=O)c1cccc(C(=O)N2CCC[C@@H]2C(=O)N[C@H](CO)c2ccc(C(F)(F)F)cc2)c1` [Example 678, 1-(3-(dimethylsulfamoyl)benzoyl)-N-((1S)-2-hydroxy-1-(4-(trifluoromethyl)phenyl)ethyl)-D-prolinamide] gave an AC1.4 of 4.993 µM.
